The MIC is the smallest concentration in the dilution series that meets the test's criterion for growth inhibition. A low value points to inhibition by little substance. One may read the MIC50 as an inhibitory concentration at the 50% level, which refers to growth in some studies and to a panel of isolates in others. A low value points to greater potency. As usually defined, the MIC90 is the lowest concentration that inhibits either 90% of growth or 90% of the strains tested, depending on the study. Higher therefore signals weaker potency. As a reminder, the MBC is the lowest tested concentration that kills the bacteria rather than only halting them.

Here are results for 3 molecules from patent publication US4698350A, “1-ethyl-6-fluoro-1,4-dihydro- 7-(2,6-dimethyl-4-pyridinyl)-4-oxo-3-quinolinecarboxylic acid and antibacterial use thereof” (Sterling Drug Inc., priority 1984, dated 1987).

Converted amounts (≈) assume the structure as drawn. “Also recorded” adds a separate entry of the source. Like-named read-outs stand apart in the source and are kept apart here. Bounds are passed on as bounds.

One experiment has as its system S. faecalis. Put plainly: In vitro antibacterial activity. The class given is cell-based. The following applies: all 4 strains of S. faecalis. As for the experimental part:
(§1) Win 52,522 and Win 35,439 were solubilized in 0.1 ml of 0.5 N NaOH/mg of compound and diluted in sterile distilled water to 160 mcg/ml. Vancomycin and methicillin were solubilized in sterile distilled water to 1250 mcg/ml of base compound. The stock solutions were sterilized by filtration through membrane filters with a 0.45 μm pore size.
(§2) The bacterial cultures listed in Table I (hereinbelow) were grown overnight at 37° C. in MHB for all cultures except the Streptococcus strains. These were grown in BHI+10% NHS. The overnight broth cultures were adjusted to an optical density of 0.10 (650 nm, B L Spectronic 20) in sterile distilled water and subsequently diluted to 6.7×10^6 cells/ml in MHB or BHI+1% NHS.
(§3) Serial two-fold dilutions of the compound solutions were prepared in MHB (or in BHI+1% NHS for tests with Streptococci) and dispensed into 96-well microtiter trays in a volume of 0.1 ml/well using a Sandy Springs (Bellco Glass Co.) dispenser. The trays were then inoculated with 0.0015 ml of a suspension containing 6.7×10^6 cells/ml of the appropriate inoculum using a MIC-2000 inoculator (Dynatech Corp.) resulting in a final inoculum of approximately 1×10^4 cells/well or 1×10^5 cells/ml. The trays were incubated at 37° C. for 18-20 hours and the minimal inhibitory concentration (MIC), defined as the lowest concentration of compound to inhibit visible bacterial growth, was recorded.
(§4) After the MIC values were recorded, the contents in the microtiter trays were thoroughly mixed on a Bellco Mini-orbital Shaker (Bellco Glass Co.) for 3 min. at a setting of 8. A portion (0.0015 ml) from each well was then transferred via an MIC-2000 inoculator to plates containing MHA or BHI agar+10% NHS. The plates were incubated at 37° C. for 18-20 hrs. The minimal bactericidal concentration (MBC), defined as the lowest concentration of compound that prevented the formation of a recognizable colony on the agar surface, was recorded.

A further experiment concerns S. pneumoniae. Kind of experiment: In vitro antibacterial activity. The class given is cell-based. The following applies: one strain of S. pneumoniae. How it is done:
as §1, §2, §3, §4

The next experiment deals with E. coli. Put plainly: In vitro MIC/MBC summary (Table II). The class given is cell-based. The note with it: Escherichia coli, 5 E. coli strains. The method in brief: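 MIC: 2-fold dilutions, MHB or BHI+1% NHS (streptococci), ~1×10^4 cells/well (~1×10^5 cells/ml), 37° C./18-20 h, visible growth endpoint. MBC: wells subcultured to MHA or BHI agar+10% NHS, 37° C./18-20 h, no recognizable colony.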

A further experiment concerns S. pyogenes. Put plainly: In vitro antibacterial activity. The following applies: 3 strains of S. pyogenes. Type of experiment: cell-based. As for the experimental part:
as §1, §2, §3, §4

The subject of a further experiment is Escherichia coli Vogel. Kind of experiment: Mouse protection test, E. coli Vogel infection. The class given is in vivo, ICR mice; Escherichia coli. The following applies: for ED50: Escherichia coli, 168 h, once one-half hour postinfection, read-out: Protective Dose 50% (95% Confidence Limits); for times more efficacious than Win 35,439: E. coli infection. As for the experimental part: (§5) ICR mice, female, 18-20 grams each.
(§6) Solutions of Win 52,522 and Win 35,439 were prepared by dissolving the appropriate weight of drug in 0.3 to 0.4 ml of 1 N NaOH and then bringing the solutions to the desired volume with distilled water. Methicillin and vancomycin were dissolved directly in distilled water.
The culture was inoculated into 10 ml of Brain Heart Infusion broth and grown statically for 16 hours at 37° C. Fresh tubes of the same broth were inoculated with 0.1 ml portions of the 16 hour broth culture and incubation continued for 5 hours at 37° C. The 5 hour broth culture was finally diluted with saline to provide the test inoculum containing 4.0×10^7 cells/ml.
(§7) Mice were inoculated intraperitoneally with 0.5 ml of the bacterial test inoculum.
Mice were medicated subcutaneously or orally once (0.5 ml) one-half hour postinfection.
(§8) Deaths were recorded daily for seven days for all tests. Fifty percent protective dose values (PD50's) were calculated using probit analysis [SAS Users Guide: Statistics, 1982 Edition, SAS Institute, Inc., Cary, N.C.].

In experiment [1] the test system is penicillin-sensitive and methicillin-resistant Staphylococcus aureus strains. Put plainly: Mouse protection tests, S. aureus infections. Type of experiment: in vivo, ICR mice; Staphylococcus aureus. The note with it: subcutaneous and oral routes, mice. How it is done:
as §5, §6, §7, §8

For experiment [2], the system named is all 39 bacterial test strains. Put plainly: In vitro antibacterial activity. Type of experiment: cell-based. How it is done:
as §1, §2, §3, §4

The test system of experiment [3] is S. pyogenes and S. pneumoniae. Put plainly: In vitro antibacterial activity. Type of experiment: cell-based. As for the experimental part:
as §1, §2, §3, §4

Experiment [4] concerns all thirteen of the target anaerobic microorganisms. Kind of experiment: Antimicrobial activity against anaerobic microorganisms. Type of experiment: cell-based. As for the experimental part:
1. Maintenance. Prior to use, all strains were maintained in the lyophilized state. During the study, cultures were examined on blood agar basal medium supplemented with 5.0% (v/v) defibrinated rabbit blood. Culture transfer was accomplished weekly with all cultures being incubated in an anaerobic atmosphere (GasPak jar; BBL).
2. Agar Medium. The basal test medium consisted of trypticase soy agar (40 g), yeast extract (1 g), glucose (2 g) and 960 ml of distilled water pH 7.2. [Mashimo et al., J. Clin. Micro. 17, 187-191 (1983)]. Subsequent to sterilization and cooling to 50° C., the medium was supplemented with 4% (v/v) defibrinated rabbit blood and 0.5 μg/ml menadione (Vitamin K3) The agent under evaluation was also added at this time to the concentration desired. Subsequent to pouring of the plates, they were permitted to dry at 4° C. for 24 hr.
3. Determination of Agent MIC. The minimal inhibitory concentration (MIC) of the various test agents was determined using an agar dilution technique. Agents and appropriate reference compounds were added to achieve a series of concentrations ranging between 32 μg/ml and 0.007 μg/ml. The inocula were prepared from 96-hr. cultures grown on the maintenance medium. Subsequent to a purity evaluation, colonies were removed and suspended in trypticase soy broth supplemented with 5 μg/ml menadione and 2% lysed rabbit blood filtrate to achieve an OD650 of 0.1 (this corresponded to approximately 10^8 cells/ml). Cultures were inoculated aerobically on the modified trypticase soy blood agar plates by use of a Steer's replicator (which delivers about 10^5 cells per spot). The plates were allowed to dry for a time not exceeding 30 min. and then incubated at 37° C. under an atmosphere of […], 10% H2 and 5% CO2 maintained in an anaerobic chamber (Coy Manufacturing Co.) for 48 hr. The MIC was defined as the lowest concentration completely inhibiting growth.
Tetracycline stock solutions (1 mg/ml) were made subsequent to dissolution in water. Stock solutions (1 mg/ml) of the remaining test compounds were made subsequent to dissolution in 1/10 N NaOH.

`CN[C@H](CC(C)C)C(=O)N[C@H]1C(=O)N[C@@H](CC(N)=O)C(=O)N[C@H]2C(=O)N[C@H]3C(=O)N[C@H](C(=O)N[C@H](C(=O)O)c4cc(O)cc(O)c4-c4cc3ccc4O)[C@H](O)c3ccc(c(Cl)c3)Oc3cc2cc(c3O[C@@H]2O[C@H](CO)[C@@H](O)[C@H](O)[C@H]2O[C@H]2C[C@](C)(N)[C@H](O)[C@H](C)O2)Oc2ccc(cc2Cl)[C@H]1O` [Vancomycin]: the bactericidal / bacteriostatic result with S. faecalis and in the experiment on S. pneumoniae was “bacteriostatic” in each case.

`CCn1cc(C(=O)O)c(=O)c2ccc(-c3cc(C)nc(C)c3)cc21` [Win 35,439, 1-ethyl-1,4-dihydro-7-(2,6-dimethyl-4-pyridinyl)-4-oxo-3-quinolinecarboxylic acid]: the MIC in the experiment on E. coli fell in the range of 0.5 to 2 µg/mL (≈ 1.55 to 6.2 µM). This molecule returned an MIC50 in the experiment on E. coli of 0.5 µg/mL (≈ 1.55 µM). In the experiment with E. coli, this molecule showed an MIC90 of 2 µg/mL (≈ 6.2 µM). Moreover, the minimal bactericidal concentration (MBC) was 0.5 µg/mL (≈ 1.55 µM) in the experiment on E. coli (read-out: MBC 50%) and 0.5 to 2 µg/mL (≈ 1.55 to 6.2 µM) in the experiment with E. coli (read-out: MBC Range). Further, in the experiment with S. pyogenes, the bactericidal / bacteriostatic result is listed as “bacteriostatic”. Further, the Survivors/Total is reported as 0/10 in the experiment on Escherichia coli Vogel (3.13 mg/kg po); 1/10 with Escherichia coli Vogel (3.13 mg/kg sc); 0/10 with Escherichia coli Vogel (6.25 mg/kg po); 0/10 in the experiment with Escherichia coli Vogel (6.25 mg/kg sc); 2/10 in the experiment with Escherichia coli Vogel (12.5 mg/kg po); 4/10 in the experiment on Escherichia coli Vogel (12.5 mg/kg sc). Besides, the Survivors/Total in the experiment with Escherichia coli Vogel (25 mg/kg po) is recorded as 9/10; in the experiment with Escherichia coli Vogel (25 mg/kg sc), 10/10. Moreover, the ED50 in the experiment with Escherichia coli Vogel (po, po) turned out to be 16.5 mg/kg; in the experiment with Escherichia coli Vogel (sc, sc), 13.5 mg/kg.

Regarding `CCn1cc(C(=O)O)c(=O)c2cc(F)c(-c3cc(C)nc(C)c3)cc21` [Win 52,522, 1-ethyl-6-fluoro-1,4-dihydro-7-(2,6-dimethyl-4-pyridinyl)-4-oxo-3-quinolinecarboxylic acid], the MIC with E. coli is 0.25 to 0.5 µg/mL (≈ 0.735 to 1.47 µM). For the same molecule, in the experiment on E. coli, the MIC50 amounted to 0.25 µg/mL (≈ 0.735 µM). Moreover, in the experiment with E. coli, the MIC90 came out at 0.25 µg/mL (≈ 0.735 µM). Also, the values for the MBC in the experiment with E. coli (read-out: MBC 50%) and in the experiment on E. coli (read-out: MBC Range) were 0.25 µg/mL (≈ 0.735 µM) and 0.25 to 0.5 µg/mL (≈ 0.735 to 1.47 µM), respectively. Further, the “in vivo efficacy (in words)” value in experiment [1] is listed as “more efficacious than Win 35,439; also recorded: very potent antibacterial agent”. Further, the MBC/MIC in experiment [2] (all Gram-positive and Gram-negative test strains) is on record as ≤ 4. For the same molecule, the bactericidal / bacteriostatic result in [2] (all test strains) is reported as “bactericidal”. Further, the “times less potent than methicillin” value in experiment [3] is 2-8 times. Moreover, in experiment [4], the “antimicrobial activity (in words)” value was “high activity against all thirteen of the target anaerobic microorganisms; also recorded: extremely active against a number of anaerobic microorganisms; also recorded: markedly superior to both Win 35,213 and 35,439; also recorded: broad spectrum of antimicrobial activity, comparing favorably with the currant antibiotic of choice, tetracycline”. For the same molecule, the Survivors/Total in the experiment on Escherichia coli Vogel (1.56 mg/kg po) is listed as 0/10; in the experiment with Escherichia coli Vogel (1.56 mg/kg sc), 0/10; with Escherichia coli Vogel (3.13 mg/kg po) it was 0/10; in the experiment with Escherichia coli Vogel (3.13 mg/kg sc) it was 0/10; in the experiment on Escherichia coli Vogel (6.25 mg/kg po), 2/10; with Escherichia coli Vogel (6.25 mg/kg sc), 8/10. The Survivors/Total is reported as 9/10 in the experiment with Escherichia coli Vogel (12.5 mg/kg po), 10/10 with Escherichia coli Vogel (12.5 mg/kg sc), 10/10 in the experiment on Escherichia coli Vogel (25 mg/kg po) and 10/10 in the experiment with Escherichia coli Vogel (25 mg/kg sc). In addition, the ED50 in the experiment on Escherichia coli Vogel (po, po) is 8.2 mg/kg; with Escherichia coli Vogel (sc, sc), ~5.2 mg/kg. Moreover, the figures for the “times more efficacious than Win 35,439” value with Escherichia coli Vogel (p.o.) and with Escherichia coli Vogel (s.c.) were 2.0 times and 2.6 times, respectively. Besides, the “PD50 values relative to those of Win 35,439” value with Escherichia coli Vogel (subcutaneous and oral) was “approximately one-half”.
